In one assay the test system is C57BL/6J mice. Kind of assay: Stereotypic counts, co-injection with amphetamine, C57BL/6J mice. The class given is in vivo. The settings on record: 5 and 20 mg/kg co-administered with amphetamine 2 mg/kg; sum over 60 min. As to the method: Experimentally naïve mice, of at least 12 weeks of age, were used for all behavioral experiments. The mice were randomly assigned to treatment or control groups, balanced by sex and weight. Locomotor activity was assessed using the automated locomotor analysis monitors (Omnitech Electronics, Columbus, OH, United States). The apparatus included four open field monitors. Each Open Field monitor consisted of sets of 16 light beams arrayed in the horizontal X and Y axes. The hardware detected beams broken by the animal, which allowed the software to determine the location of the mouse in the cage. Total distance covered by mice was used to characterize locomotor activity of the animals. The monitors were divided into four compartments (20 cm × 20 cm). Animals were tested individually for defined periods with 5-min intervals. The mice were first weighed and then placed into the apparatus, allowing for 30 min habituation. […] The locomotor activity was then measured for additional 1 h. […]
(A) Wild type C57BL/6J mice were first habituated for 30 min followed by the co-injection of amphetamine (2 mg/kg) and saline or compound 22 at doses 5, 15, 20, 25, 30, and 50 mg/kg. The locomotor activity was assessed for 60 min after the injection. Sum of stereotypic counts assessed over 60 min after the injection of amphetamine and compound 22. […] The locomotor activity was assessed for 60 min after the injection. […]

The test system of another assay is VTA dopamine neurons. Kind of assay: Electrophysiology: spontaneous firing of VTA dopamine neurons in slices. The format is cell-based, C57Bl/6J mice. The settings on record: 100 μM, bath applied 5 min; percentage of baseline. As to the method:
All electrophysiological recordings were performed in slice preparations from C57Bl/6J mice (P21-P30). Briefly, mice were anaesthetized with isoflurane and transcardially perfused with an ice-cold sucrose solution containing (in mM): 50 sucrose, 26.2 NaHCO3, 1.25 glucose, 4.9 MgCl2, 3 kynurenic acid, 0.1 CaCl2, and 1.32 ascorbic acid in bicarbonate-buffered solution (aCSF, described below). Mice were then decapitated and brains were extracted. […] Cells were visualized on an upright microscope using “Dodt-type” gradient contrast infrared optics ([Dodt et al., 2002]) and whole-cell recordings were made using a MultiClamp 700B amplifier (Axon Instruments, Union City, CA, United States). Recording electrodes (3–5 MΩ) were filled with (in mM): 136 potassium-D-gluconate, 4 MgCl2, 1.1 HEPES, 5, EGTA, 10 sodium creatine phosphate, 3.4 Mg-ATP, and 0.1 Na2GTP. […] Spontaneous firing activity was recorded in current-clamp mode. […] Firing data for all neurons was analyzed with the MiniAnalysis program (Synaptosoft) using the same criteria. Drug-induced changes in firing are expressed as a percentage of baseline. Drug effects were calculated by comparing the response during the baseline/pre-drug period to the response 5 min after onset of drug administration. […] We therefore assessed the effects of compound 22 on firing rate of dopamine neurons. […]

For the next assay, the system named is AMPA. The assay is described as follows: PDSP binding, primary screen. Details: species or system human. The settings on record: 10 μM. Here is the method:
(§1) This was achieved through the identification of potential pharmacological targets of compound 22 using the Psychoactive Drug Screening Program (PDSP) at University of North Carolina-Chapel-Hill. PDSP provides a platform for screening novel psychoactive compounds on human proteins expressed in the central nervous system in order to identify their biological target(s) ([Besnard et al., 2012]). Binding studies were done on 47 targets at a single dose of compound 22 (10 μM; Supplementary Table S1). This primary screen yielded a total of 5 hits for compound 22 (Table 2). These hits were the serotonin, dopamine, and norepinephrine transporters, as well as the sigma 1 and sigma 2 receptors.
(§2) Supplemental Table 1. Compound 22 binding studies from PDSP: primary screen for compound 22 and subsequent hits (50% cut-off, hits highlighted in red). The primary screen was performed by PDSP as described previously (Besnard et al., 2012).

The next assay deals with GABAA. Kind of assay: PDSP binding, primary screen. Also on record: species or system human. The conditions noted are these: 10 μM. Here is the method:
as §1, §2

For another assay, the system named is PBR. Kind of assay: PDSP binding, primary screen. Also on record: species or system human. The conditions noted are these: 10 μM. As to the method: as §1, §2
The test system of the next assay is Sigma 2. Kind of assay: PDSP binding, primary screen. Details: species or system human. The conditions noted are these: 10 μM. As to the method:
as §1, §2

In the next assay the test system is BZP site. The assay is described as follows: PDSP binding, primary screen. Details: species or system human. The settings on record: 10 μM. As to the method: as §1, §2
In a further assay the test system is NMDA. The assay is described as follows: PDSP binding, primary screen. Details: species or system human. The conditions noted are these: 10 μM. Here is the method: as §1, §2

The term % Inhibition denotes the change of the read-out against control, counted positive when it falls. In the case of `Clc1ccc(CNCc2ccc(Cn3cncn3)cc2)c(Cl)c1` [compound 22], the stereotypic counts result in the assay on C57BL/6J mice is recorded as “statistically significant increase in stereotypic counts”. For the same molecule, in the assay on VTA dopamine neurons, the “increase in firing rate of dopaminergic neurons from VTA” value is recorded as 88%. The “% Inhibition” value in the assay with AMPA is given as 13.4%; in the assay on GABAA, 5.2%; in the assay with PBR it was 23.1%; in the assay with Sigma 2, 78.4%; in the assay with BZP site, 1.1%; with NMDA, -1.7%.

Source of the values: PMC6131539, “Behavioral Effects of a Potential Novel TAAR1 Antagonist” (Frontiers in Pharmacology, 2018).
